Tests used:
[1] = system: Western equine encephalitis virus; experiment: Antiviral activity against Western equine encephalitis virus infected in BSR-T7 cells assessed as inhibition of viral genome replicon replication measured after 18 to 24 hrs by luciferase assay; assay type: functional, organism-based; conditions: BSR-T7/5
[2] = Cytotoxicity against golden hamster BSR-T7 cells assessed as reduction in cell viability measured after 18 to 24 hrs by MTT assay; assay type: cell-based, Mesocricetus auratus, BSR-T7/5
[3] = Antiviral activity against FMV infected in human BE2C cells assessed as reduction in virus-induced cytopathicity at 25 uM relative to control
[4] = Antiviral activity against FMV infected in human BE2C cells assessed as reduction in virus-induced cytopathicity by measuring cell viability at 5 uM (reference value: 19.6 +/-4%)
[5] = Antiviral activity against FMV infected in human BE2C cells assessed as reduction in virus-induced cytopathicity at 5 uM relative to control
[6] = Antiviral activity against FMV infected in human BE2C cells assessed as reduction in virus-induced cytopathicity by measuring cell viability at 25 uM (reference value: 19.6 +/-4%)

Row | SMILES | IC50 [1] [µM] | CC50 ([2]; bsr-t7/5, time 18-24 hrs) [µM] | further results
1 | O=C(NCc1ccccc1)C1CCN(C(=O)c2cc3ccccc3n2Cc2ccc(Cl)cc2)CC1 | 30.6 |  | CC50 ([2]; BSR-T7 cells, time 18-24 hrs): > 100 µM
2 | O=C(NCCc1ccncc1)C1CCN(C(=O)c2cc3ccccc3n2Cc2ccc(Cl)cc2)CC1 |  |  | fold change (FC) [3]: 2
3 | O=C(c1cc2ccccc2n1Cc1ccc(Cl)cc1)N1CCC(/C=C/CCc2ccncc2)CC1 | > 50 |  | 
4 | Cc1cccc2cc(C(=O)N3CCC(C(=O)NCc4ccccc4)CC3)n(Cc3ccc(Cl)cc3)c12 | 61 | > 100 | 
5 | O=C(CC1CCN(C(=O)c2cc3ccccc3n2Cc2ccc(Cl)cc2)CC1)NCc1ccncc1 | 24.7 | 77.3 | 
6 | O=C(NCCCc1ccccc1)C1CCN(C(=O)c2cc3ccccc3n2Cc2ccc(Cl)cc2)CC1 | > 100 | > 50 | 
7 | O=C(c1cc2ccccc2n1Cc1ccc(Cl)cc1)N1CCC(/C=C\CCc2ccncc2)CC1 | > 50 | > 50 | 
8 | O=C(c1cc2ccccc2n1Cc1ccc(Cl)cc1)N1CCC(C(=O)N2Cc3ccccc3C2)CC1 | > 100 | > 100 | 
9 | O=C(NCCc1ccncc1)C1=CCN(C(=O)c2cc3ccccc3n2Cc2ccc(Cl)cc2)CC1 | 3.9 | 74.2 | 
10 | O=C(NCC1CCc2ccccc21)C1CCN(C(=O)c2cc3ccccc3n2Cc2ccc(Cl)cc2)CC1 (stereo not drawn) | 7.1 | > 100 | 
11 | Cc1c(C(=O)N2CCC(C(=O)NCc3ccccc3)CC2)n(Cc2ccc(Cl)cc2)c2ccccc12 | > 100 | > 100 | 
12 | O=C(c1cc2ccccc2n1Cc1ccc(Cl)cc1)N1CCC(C(=O)N2CCc3ccccc32)CC1 | > 100 | > 100 | 
13 | O=C(NCCc1ccncc1)[C@H]1[C@@H]2CCN(C(=O)c3cc4ccccc4n3Cc3ccc(Cl)cc3)C[C@@H]21 | 24.6 | > 100 | 
14 | O=C(NCCc1ccncc1)N1CCN(C(=O)c2cc3ccccc3n2Cc2ccc(Cl)cc2)CC1 | 24.4 | 78 | 
15 | CN(CCc1ccncc1)C(=O)[C@@H]1C[C@H]2CC[C@@H](C1)N2C(=O)c1cc2ccccc2n1Cc1ccc(Cl)cc1 | 0.96 | 50.9 | 
16 | O=C(NCCc1ccncc1)C1CC2(C1)CN(C(=O)c1cc3ccccc3n1Cc1ccc(Cl)cc1)C2 | 10.9 | 56.5 | 
17 | O=C(NCCc1ccncc1)C1CCCN(C(=O)c2cc3ccccc3n2Cc2ccc(Cl)cc2)CC1 (stereo not drawn) | 0.49 | 41.1 | Activity [4]: 36.1%; fold change (FC) [5]: 2; Activity [6]: 22.9%
18 | O=C(c1cc2ccccc2n1Cc1ccc(Cl)cc1)N1CCC(C(=O)N2CCC(c3ccccc3)C2)CC1 (stereo not drawn) | > 100 | > 100 | 
19 | O=C(CCc1ccncc1)NC1CCN(C(=O)c2cc3ccccc3n2Cc2ccc(Cl)cc2)CC1 | 17.6 | 66.7 | 
20 | O=C(NC1Cc2ccccc2C1)C1CCN(C(=O)c2cc3ccccc3n2Cc2ccc(Cl)cc2)CC1 | > 100 | > 100 | 
21 | O=C(NCC1Cc2ccccc2C1)C1CCN(C(=O)c2cc3ccccc3n2Cc2ccc(Cl)cc2)CC1 | 0.53 | > 100 | 
22 | O=C(c1cc2ccccc2n1Cc1ccc(Cl)cc1)N1CC[C@H]2C(=O)N(CCc3ccncc3)C[C@H]2C1 | 24.4 | 61 | 
23 | O=C(c1cc2ccccc2n1Cc1ccc(Cl)cc1)N1CCC(C(=O)N2CCCC2c2ccccc2)CC1 (stereo not drawn) | > 100 | > 100 | 
24 | O=C(NC1CCc2ccccc21)C1CCN(C(=O)c2cc3ccccc3n2Cc2ccc(Cl)cc2)CC1 (stereo not drawn) | > 100 | > 100 | 
25 | CC1(C(=O)NCCc2ccncc2)CCN(C(=O)c2cc3ccccc3n2Cc2ccc(Cl)cc2)CC1 | > 50 | > 50 | 
26 | CC(NC(=O)C1CCN(C(=O)c2cc3ccccc3n2Cc2ccc(Cl)cc2)CC1)C1Cc2ccccc2C1 (racemic) | 1.7 | > 100 | 
